Legend:
[1] = system: wheat; assay: Test C preemergence; type: in vivo, Triticum aestivum; conditions: preemergence, 0 to 100 scale (0 no effect, 100 complete control)
Outline: (§1)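 Greenhouse herbicide screen, 10-day duration. Test chemicals in solvent/surfactant blend were sprayed onto soil at sowing (pre) or onto 2–10 cm seedlings at one to two leaves (post); injury scored visually against controls, 0 no effect to 100 complete control.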

[2] = system: pigweed, palmer; assay: Test C postemergence; type: in vivo, Amaranthus palmeri; conditions: 10 days
Outline: as §1

[3] = system: corn; assay: Test C postemergence; type: in vivo, Zea mays; conditions: 10 days
Outline: as §1

[4] = system: corn; assay: Test C preemergence; type: in vivo, Zea mays; conditions: preemergence, 0 to 100 scale (0 no effect, 100 complete control)
Outline: as §1

[5] = system: barnyardgrass; assay: Test C postemergence; type: in vivo, Echinochloa crusgalli; conditions: 10 days
Outline: as §1

[6] = system: sedge, umbrella; assay: Test D flooded paddy test; type: in vivo, Cyperus difformis; conditions: 250 g ai/ha, applied to paddy water, visual rating after 13 to 14 days, scale 0 to 100 (0 no effect, 100 complete control)
Outline: (§2)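 Rating scale 0–100 (0 no effect, 100 complete control), visual, versus controls. Readout at 13–14 days after in-water application to 2-leaf plants in pots flooded 3 cm deep.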

[7] = system: soybean; assay: Test C preemergence; type: in vivo, Glycine max; conditions: preemergence, 0 to 100 scale (0 no effect, 100 complete control)
Outline: as §1

[8] = system: ducksalad; assay: Test D flooded paddy test; type: in vivo, Heteranthera limosa; conditions: 250 g ai/ha, applied to paddy water, visual rating after 13 to 14 days, scale 0 to 100 (0 no effect, 100 complete control)
Outline: as §2

[9] = system: green foxtail; assay: Test C preemergence; type: in vivo, Setaria viridis; conditions: preemergence, 0 to 100 scale (0 no effect, 100 complete control)
Outline: as §1

[10] = system: oat, wild; assay: Test C preemergence; type: in vivo, Avena fatua; conditions: preemergence, 0 to 100 scale (0 no effect, 100 complete control)
Outline: as §1

[11] = system: green foxtail; assay: Test C postemergence; type: in vivo, Setaria viridis; conditions: 10 days
Outline: as §1

[12] = system: kochia; assay: Test C preemergence; type: in vivo, Bassia scoparia; conditions: preemergence, 0 to 100 scale (0 no effect, 100 complete control)
Outline: as §1

[13] = system: ryegrass, Italian; assay: Test C preemergence; type: in vivo, Lolium multiflorum; conditions: preemergence, 0 to 100 scale (0 no effect, 100 complete control)
Outline: as §1

[14] = system: blackgrass; assay: Test C postemergence; type: in vivo, Alopecurus myosuroides; conditions: 10 days
Outline: as §1

[15] = system: ragweed; assay: Test C postemergence; type: in vivo, Ambrosia artemisiifolia; conditions: 10 days
Outline: as §1

[16] = system: barnyardgrass; assay: Test C preemergence; type: in vivo, Echinochloa crusgalli; conditions: preemergence, 0 to 100 scale (0 no effect, 100 complete control)
Outline: as §1

[17] = system: galium; assay: Test C postemergence; type: in vivo, Galium aparine; conditions: 10 days
Outline: as §1

[18] = system: ragweed; assay: Test C preemergence; type: in vivo, Ambrosia artemisiifolia; conditions: preemergence, 0 to 100 scale (0 no effect, 100 complete control)
Outline: as §1

[19] = system: kochia; assay: Test C postemergence; type: in vivo, Bassia scoparia; conditions: 10 days
Outline: as §1

[20] = system: oat, wild; assay: Test C postemergence; type: in vivo, Avena fatua; conditions: 10 days
Outline: as §1

[21] = system: horseweed; assay: Test C postemergence; type: in vivo, Erigeron canadensis; conditions: 10 days
Outline: as §1

[22] = system: ryegrass, Italian; assay: Test C postemergence; type: in vivo, Lolium multiflorum; conditions: 10 days
Outline: as §1

[23] = system: pigweed, palmer; assay: Test C preemergence; type: in vivo, Amaranthus palmeri; conditions: preemergence, 0 to 100 scale (0 no effect, 100 complete control)
Outline: as §1

[24] = system: blackgrass; assay: Test C preemergence; type: in vivo, Alopecurus myosuroides; conditions: preemergence, 0 to 100 scale (0 no effect, 100 complete control)
Outline: as §1

[25] = system: barnyardgrass; assay: Test D flooded paddy test; type: in vivo, Echinochloa crus-galli; conditions: 250 g ai/ha, applied to paddy water, visual rating after 13 to 14 days, scale 0 to 100 (0 no effect, 100 complete control)
Outline: as §2

[26] = system: wheat; assay: Test C postemergence; type: in vivo, Triticum aestivum; conditions: 10 days
Outline: as §1

[27] = system: soybean; assay: Test C postemergence; type: in vivo, Glycine max; conditions: 10 days
Outline: as §1

[28] = system: rice; assay: Test D flooded paddy test; type: in vivo, Oryza sativa; conditions: 250 g ai/ha, applied to paddy water, visual rating after 13 to 14 days, scale 0 to 100 (0 no effect, 100 complete control)
Outline: as §2

[29] = 500 g ai/ha, postemergence, 0 to 100 scale (0 no effect, 100 complete control)
[30] = Postemergence, 125 g ai/ha, 0 to 100 scale (0 no effect, 100 complete control)
[31] = 125 g ai/ha, postemergence, 0 to 100 scale, 0 no effect, 100 complete control

Cc1cccc2c1O[C@@H](C)CN2C(=O)c1cccc(-n2cnc([N+](=O)[O-])n2)c1 [Compound 306]
20: Plant response rating, Pigweed, Palmer [2, 29] | Ragweed plant response rating ([18]; 500 g ai/ha) | Ragweed plant response rating ([18]; Test C, 125 g ai/ha)
40: Ryegrass, Italian plant response rating ([13]; 500 g ai/ha)
30: Plant response rating, Foxtail, Green [11, 30] | Ryegrass, Italian plant response rating ([13]; Test C, 125 g ai/ha) | Plant response rating, Ragweed [15, 30] | Plant response rating, Galium [17, 30] | Plant response rating, Horseweed [21, 30] | Plant response rating, Soybean [27, 30]
50: Foxtail, Green plant response rating ([9]; 500 g ai/ha) | Plant response rating, Foxtail, Green [11, 29] | Plant response rating, Galium [17, 29]
10: Plant response rating, Corn [3, 29] | Plant response rating, Barnyardgrass [5, 29] | Plant response rating, Barnyardgrass [5, 30] | Plant response rating, Blackgrass [14, 29] | Plant response rating, Kochia [19, 29] | Plant response rating, Kochia [19, 30] | Pigweed, Palmer plant response rating ([23]; 500 g ai/ha) | Plant response rating, Wheat [26, 29]
0: Wheat plant response rating ([1]; 500 g ai/ha) | Wheat plant response rating ([1]; Test C, 125 g ai/ha) | Plant response rating, Pigweed, Palmer [2, 30] | Plant response rating, Corn [3, 30] | Corn plant response rating ([4]; 500 g ai/ha) | Corn plant response rating ([4]; Test C, 125 g ai/ha) | Plant response rating, Sedge, Umbrella (Flood) [6] | Soybean plant response rating ([7]; 500 g ai/ha) | Soybean plant response rating ([7]; Test C, 125 g ai/ha) | Plant response rating, Ducksalad (Flood) [8] | Foxtail, Green plant response rating ([9]; Test C, 125 g ai/ha) | Oat, Wild plant response rating ([10]; 500 g ai/ha) | Oat, Wild plant response rating ([10]; Test C, 125 g ai/ha) | Kochia plant response rating ([12]; 500 g ai/ha) | Kochia plant response rating ([12]; Test C, 125 g ai/ha) | Plant response rating, Blackgrass [14, 30] | Plant response rating, Ragweed [15, 29] | Barnyardgrass plant response rating ([16]; 500 g ai/ha) | Barnyardgrass plant response rating ([16]; Test C, 125 g ai/ha) | Plant response rating, Oat, Wild [20, 29] | Plant response rating, Oat, Wild [20, 30] | Plant response rating, Horseweed [21, 29] | Plant response rating, Ryegrass, Italian [22, 29] | Plant response rating, Ryegrass, Italian [22, 30] | Pigweed, Palmer plant response rating ([23]; Test C, 125 g ai/ha) | Blackgrass plant response rating ([24]; 500 g ai/ha) | Plant response rating, Barnyardgrass (Flood) [25] | Plant response rating, Wheat [26, 30] | Plant response rating, Rice (Flood) [28]
90: Plant response rating, Soybean [27, 29]

CCc1ncn(-c2ccc(C)c(C(=O)N3CC(C(F)(F)F)Oc4c(Cl)cccc43)c2)n1 (racemic) [Compound 290]
60: Ragweed plant response rating ([18]; Test C, 125 g ai/ha) | Plant response rating, Wheat [26, 29]
50: Wheat plant response rating ([1]; 500 g ai/ha) | Plant response rating, Barnyardgrass [5, 31] | Plant response rating, Ducksalad (Flood) [8] | Plant response rating, Ryegrass, Italian [22, 31]
40: Corn plant response rating ([4]; 500 g ai/ha) | Plant response rating, Horseweed [21, 31] | Plant response rating, Horseweed [21, 29]
10: Plant response rating, Blackgrass [14, 31] | Plant response rating, Oat, Wild [20, 31] | Plant response rating, Barnyardgrass (Flood) [25] | Plant response rating, Rice (Flood) [28]
85: Plant response rating, Sedge, Umbrella (Flood) [6]
30: Wheat plant response rating ([1]; Test C, 125 g ai/ha) | Plant response rating, Corn [3, 31] | Plant response rating, Corn [3, 29] | Corn plant response rating ([4]; Test C, 125 g ai/ha) | Plant response rating, Wheat [26, 31]
70: Oat, Wild plant response rating ([10]; Test C, 125 g ai/ha) | Plant response rating, Ragweed [15, 31] | Ragweed plant response rating ([18]; 500 g ai/ha) | Blackgrass plant response rating ([24]; 500 g ai/ha) | Blackgrass plant response rating ([24]; Test C, 125 g ai/ha)
100: Plant response rating, Pigweed, Palmer [2, 31] | Plant response rating, Pigweed, Palmer [2, 29] | Foxtail, Green plant response rating ([9]; 500 g ai/ha) | Foxtail, Green plant response rating ([9]; Test C, 125 g ai/ha) | Ryegrass, Italian plant response rating ([13]; 500 g ai/ha) | Barnyardgrass plant response rating ([16]; 500 g ai/ha) | Plant response rating, Galium [17, 31] | Plant response rating, Galium [17, 29] | Pigweed, Palmer plant response rating ([23]; 500 g ai/ha) | Pigweed, Palmer plant response rating ([23]; Test C, 125 g ai/ha) | Plant response rating, Soybean [27, 31] | Plant response rating, Soybean [27, 29]
80: Soybean plant response rating ([7]; 500 g ai/ha) | Plant response rating, Foxtail, Green [11, 31] | Plant response rating, Ragweed [15, 29] | Plant response rating, Kochia [19, 31]
90: Plant response rating, Barnyardgrass [5, 29] | Soybean plant response rating ([7]; Test C, 125 g ai/ha) | Oat, Wild plant response rating ([10]; 500 g ai/ha) | Plant response rating, Foxtail, Green [11, 29] | Kochia plant response rating ([12]; 500 g ai/ha) | Kochia plant response rating ([12]; Test C, 125 g ai/ha) | Ryegrass, Italian plant response rating ([13]; Test C, 125 g ai/ha) | Plant response rating, Blackgrass [14, 29] | Barnyardgrass plant response rating ([16]; Test C, 125 g ai/ha) | Plant response rating, Kochia [19, 29] | Plant response rating, Oat, Wild [20, 29] | Plant response rating, Ryegrass, Italian [22, 29]

Source: patent US20260262643A1, “HERBICIDAL BENZOXAZINES” (FMC CORPORATION, priority 2022, published 2026)
